Measurements as given in patent US20240417412A1, “HETEROCYCLIC COMPOUNDS AND METHODS OF USE” (AMGEN INC., priority 2022, published 2024).

What was measured:
p-ERK (AsPC-1 cells) = assay: Phospho-ERK1/2 MSD Assay; format: cell-based; conditions: Homo sapiens, ASPC1, 2 h, read-out: 2 h p-ERK (AsPC-1 cells), IC50 (μM), AsPC-1 cells, 2 hours compound treatment
Method: Sixteen hours prior to compound treatment, AsPC-1 cells were seeded in 96-well cell culture plates at a density of 25,000 cells/well and incubated at 37° C., 5% CO2. A compound dose-response titration was diluted in growth media, added to appropriate wells of a cell culture plate, and then incubated at 37° C., 5% CO2 for 2 hours. […] Phosphorylation of ERK1/2 in compound-treated lysates was assayed using Phospho-ERK1/2 Whole Cell Lysate kits (Meso Scale Discovery K151DWD) according to the manufacturer's protocol. Assay plates were read on a Meso Scale Discovery Sector Imager 6000, and data were analyzed using a 4-parameter logistic model to calculate IC50 values.

KRAS G12D [1] = biological target: KRAS G12D (Homo sapiens, UniProt P01116, C118A/G12D); assay: KRAS G12D Coupled Nucleotide Exchange Assay; format: biochemical; conditions: GDP-bound KRAS G12D/C118A, 2 hours pre-incubation, SOS-mediated nucleotide exchange, AlphaScreen
Method: The assay plates were then read on a PerkinElmer EnVision Multilabel Reader, using AlphaScreen® technology, and data were analyzed using a 4-parameter logistic model to calculate IC50 values.

KRAS G12D [2] = biological target: KRAS G12D (Homo sapiens, UniProt P01116, G12D); assay: KRAS G12D TR-FRET Assay; conditions: His-tagged KRAS G12D, biotinylated KRPep-2d, read-out: KRAS G12D Binding IC50
Method: The plate was incubated for 30 minutes at room temperature. Biotinylated KRPep-2d substrate (Amgen) was diluted to 20 nM in Assay Buffer and 2 uL was added to all wells and incubated for 1 hour at room temperature. Detection Reagent (0.4 nM LANCE Eu-W1024 Anti-6×His (Perkin Elmer AD0401), 5 nM streptavidin-d2 (Cisbio 610SADLA)) was prepared in Assay Buffer, then 4 μL was added to the plate and incubated for 1 hour at room temperature.

Sequence of KRAS G12D (Homo sapiens, UniProt P01116, G12D) (P01116 1-188 isoform P01116-2 G12D): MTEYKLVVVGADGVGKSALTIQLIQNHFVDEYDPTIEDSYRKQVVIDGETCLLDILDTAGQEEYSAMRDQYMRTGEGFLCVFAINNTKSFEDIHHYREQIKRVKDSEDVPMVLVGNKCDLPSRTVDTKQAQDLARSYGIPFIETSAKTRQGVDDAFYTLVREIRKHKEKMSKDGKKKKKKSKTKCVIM
Sequence of KRAS G12D (Homo sapiens, UniProt P01116, C118A/G12D) (P01116 1-169 isoform P01116-2 G12D/C118A): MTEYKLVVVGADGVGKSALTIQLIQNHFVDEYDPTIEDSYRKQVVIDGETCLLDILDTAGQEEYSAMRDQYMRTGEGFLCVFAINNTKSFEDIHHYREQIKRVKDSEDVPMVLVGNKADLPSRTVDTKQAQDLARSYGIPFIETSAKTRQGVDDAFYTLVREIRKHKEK

Q: Which results are given for CCc1c(F)ccc2cc(O)cc(-c3ncc4c(N5CCCC6(CCC(=O)N6)C5)nc(OC[C@@]56CCCN5C[C@H](F)C6)nc4c3F)c12 (stereo partly drawn) [Example 28, 7-(7-(8-Ethyl-7-fluoro-3-hydroxynaphthalen-1-yl)-8-fluoro-2-(((2R,7aS)-2-fluorotetrahydro-1H-pyrrolizin-7a(5H)-yl)methoxy)pyrido[4,3-d]pyrimidin-4-yl)-1,7-diazaspiro[4.5]decan-2-one]?
A: IC50 (p-ERK (AsPC-1 cells)): 0.923 µM; IC50 (KRAS G12D [1]): 5 nM; IC50 (KRAS G12D [2]): 3 nM

Q: Which results are given for C#Cc1c(F)ccc2cccc(-c3ncc4c(N5CCCC6(CNC(=O)C6)C5)nc(OC[C@@]56CCCN5C[C@H](F)C6)nc4c3F)c12 (stereo partly drawn) [Example 29, 7-(7-(8-Ethynyl-7-fluoronaphthalen-1-yl)-8-fluoro-2-(((2R,7aS)-2-fluorotetrahydro-1H-pyrrolizin-7a(5H)-yl)methoxy)pyrido[4,3-d]pyrimidin-4-yl)-2,7-diazaspiro[4.5]decan-3-one]?
A: IC50 (p-ERK (AsPC-1 cells)): 2.04 µM; IC50 (KRAS G12D [1]): 9 nM; IC50 (KRAS G12D [2]): 10 nM

Q: Which IC50 (p-ERK (AsPC-1 cells)) does the source give for CCc1c(F)ccc2cccc(-c3ncc4c(N5CCCC6(CNC(=O)C6)C5)nc(OC[C@@]56CCCN5C[C@H](F)C6)nc4c3F)c12 (stereo partly drawn) [Example 30, 7-(7-(8-Ethyl-7-fluoronaphthalen-1-yl)-8-fluoro-2-(((2R,7aS)-2-fluorotetrahydro-1H-pyrrolizin-7a(5H)-yl)methoxy)pyrido[4,3-d]pyrimidin-4-yl)-2,7-diazaspiro[4.5]decan-3-one] here?
A: 1.98 µM

Q: And the IC50 (KRAS G12D [1])?
A: 16 nM

Q: What about the IC50 (KRAS G12D [2]) of the same molecule?
A: 19 nM

Q: CCc1c(F)ccc2cc(O)cc(-c3ncc4c(N5CCCC6(CCOC6)C5)nc(OC[C@@]56CCCN5C[C@H](F)C6)nc4c3F)c12 (stereo partly drawn) [Example 33, 5-Ethyl-6-fluoro-4-(8-fluoro-2-(((2R,7aS)-2-fluorotetrahydro-1H-pyrrolizin-7a(5H)-yl)methoxy)-4-(2-oxa-7-azaspiro[4.5]decan-7-yl)pyrido[4,3-d]pyrimidin-7-yl)naphthalen-2-ol] was tested. Which IC50 (p-ERK (AsPC-1 cells)) did it give?
A: 0.452 µM

Q: And the IC50 (KRAS G12D [1])?
A: 12 nM

Q: And the IC50 (KRAS G12D [2])?
A: 8 nM

Q: With CCc1c(F)ccc2cc(O)cc(-c3ncc4c(N5CCC6(CC(O)C6)C5)nc(OC[C@@]56CCCN5C[C@H](F)C6)nc4c3F)c12 (stereo partly drawn) [Example 37, 6-(7-(8-Ethyl-7-fluoro-3-hydroxynaphthalen-1-yl)-8-fluoro-2-(((2R,7aS)-2-fluorotetrahydro-1H-pyrrolizin-7a(5H)-yl)methoxy)pyrido[4,3-d]pyrimidin-4-yl)-6-azaspiro[3.4]octan-2-ol] as the molecule, how does the IC50 (p-ERK (AsPC-1 cells)) read?
A: 2.53 µM

Q: What about the IC50 (KRAS G12D [1]) of the same molecule?
A: 38 nM

Q: And the IC50 (KRAS G12D [2])?
A: 85 nM

Q: How did the IC50 (p-ERK (AsPC-1 cells)) turn out when CCc1c(F)ccc2cc(O)cc(-c3ncc4c(N5CCCC6(CCS(=N)(=O)C6)C5)nc(OC[C@@]56CCCN5C[C@H](F)C6)nc4c3F)c12 (stereo partly drawn) [Example 39, 7-(7-(8-Ethyl-7-fluoro-3-hydroxynaphthalen-1-yl)-8-fluoro-2-(((2R,7aS)-2-fluorotetrahydro-1H-pyrrolizin-7a(5H)-yl)methoxy)pyrido[4,3-d]pyrimidin-4-yl)-2-imino-216-thia-7-azaspiro[4.5]decane 2-oxide] was run?
A: 2.53 µM

Q: And the IC50 (KRAS G12D [1])?
A: 3 nM

Q: What about the IC50 (KRAS G12D [2]) of the same molecule?
A: 2 nM

Q: Which results are given for CCc1c(F)ccc2cc(O)cc(-c3ncc4c(N5CCCC6(COC(=O)N6)C5)nc(OC[C@@]56CCCN5C[C@H](F)C6)nc4c3F)c12 (stereo partly drawn) [Example 40, 7-(7-(8-Ethyl-7-fluoro-3-hydroxynaphthalen-1-yl)-8-fluoro-2-(((2R,7aS)-2-fluorotetrahydro-1H-pyrrolizin-7a(5H)-yl)methoxy)pyrido[4,3-d]pyrimidin-4-yl)-3-oxa-1,7-diazaspiro[4.5]decan-2-one]?
A: IC50 (p-ERK (AsPC-1 cells)): 4.32 µM; IC50 (KRAS G12D [1]): 4 nM; IC50 (KRAS G12D [2]): 3 nM

Q: With CCc1c(F)ccc2cc(O)cc(-c3ncc4c(N5CCC6(CC5)CNC(=O)O6)nc(OC[C@@]56CCCN5C[C@H](F)C6)nc4c3F)c12 [Example 41, 8-(7-(8-Ethyl-7-fluoro-3-hydroxynaphthalen-1-yl)-8-fluoro-2-(((2R,7aS)-2-fluorotetrahydro-1H-pyrrolizin-7a(5H)-yl)methoxy)pyrido[4,3-d]pyrimidin-4-yl)-1-oxa-3,8-diazaspiro[4.5]decan-2-one] as the molecule, how does the IC50 (p-ERK (AsPC-1 cells)) read?
A: > 10 µM

Q: And the IC50 (KRAS G12D [1])?
A: 10 nM

Q: And the IC50 (KRAS G12D [2])?
A: 19 nM
